Assay results published in patent US20130210846A1, “USE OF NOVEL PAN-CDK INHIBITORS FOR TREATING TUMORS” (BAYER INTELLECTUAL PROPERTY GMBH, priority 2010, published 2013).
pIC50: −log10 of the molar value.

Key:
[1] = tested on: HCT116 human colorectal tumor cells; experiment: HCT116 human colorectal xenograft model; format: in vivo, female NMRI nude mice
Description: (§1) Tumor cells grown in cell culture were implanted subcutaneously in the flank of female or male NMRI nude mice. The treatment was started as soon as the tumors had grown to a size of approx. 20 mm^2 The study was ended as soon as the tumors in one of the groups reached a size of approx. 150 mm^2.
(§2) Vehicle group: treatment with solubilizer (40% PEG400/60% water)
(§3) The studies were designed for determining the initial response of the human tumor model to the treatment with the Exemplary compound 2-SI-2. Tumor growth inhibition in percent (TGI) was either calculated at the end of the studies from the tumor weights (TGITW) using the formula 100×[1−(tumor weight of the treatment group/tumor weight of the vehicle group)], or on the day the vehicle group had to be ended from the tumor areas (TGITA) using the formula 100×[1−(tumor area of the treatment group on the day of the measurement−tumor area of the treatment group prior to treatment)/(tumor area of the vehicle group on the day of the measurement−tumor area of the vehicle group prior to treatment)]. In the case of a tumor growth inhibition of more than 50%, the treatment was considered to have been effective.
Efficacy in the HCT116 human colorectal xenograft model.
HCT116 human colorectal tumor cells implanted into female NMRI nude mice.
• a) 0.15 mg/ml, 0.20 mg/ml of Example 2-SI-2 in 40% (v/v) PEG 400 in water • b) 0.20 mg/ml, 0.25 mg/ml of Example 2-SI-2 in 40% (v/v) PEG 400 in water • c) 0.40 mg/ml, 0.50 mg/ml, 0.60 mg/ml of Example 2-SI-2 in 40% (v/v) PEG 400 in water
• a) 1.5 and 2.0 mg/kg (4.5 and 6.0 mg/m^2), 1× per day. • b) 2.0 and 2.5 mg/kg (6.0 and 7.5 mg/m^2), 2× per day on 2 successive days, followed by 5 treatment-free days. • c) 4.0 to 6.0 mg/kg (12 to 18 mg/m^2), 1× per day on 2 successive days, followed by 5 treatment-free days.

[2] = tested on: NCI-H82 human small-cell lung tumor cells; experiment: NCI-H82 human small-cell lung tumor model; format: in vivo, female NMRI nude mice; details: NCI-H82; a) 1.7 mg/kg oral 2× per day on 3 successive days, followed by 4 treatment-free days
Description: as §1, §2, §3
Efficacy in the NCI-H82 human small-cell lung tumor model.
NCI-H82 human small-cell lung tumor cells implanted into female NMRI nude mice.
• a) 0.17 mg/ml of Example 2-SI-2 in 40% (v/v) PEG 400 in water […]

[3] = tested on: A2780-Cis cisplatin-resistant human ovarial tumor cells; experiment: A2780-Cis human ovarial tumor model; format: in vivo, female NMRI nude mice
Description: as §1, §2, §3
Efficacy in the A2780-Cis human ovarial tumor model.
Efficacy in the A2780-Cis human ovarial tumor model A2780-Cis cisplatin-resistant human ovarial tumor cells implanted into female NMRI nude mice.
• a) 0.20 mg/ml of Example 2-SI-2 in 40% (v/v) PEG 400 in water • b) 0.15 mg/ml of Example 2-SI-2 in 40% (v/v) PEG 400 in water • c) 0.17 mg/ml of Example 2-SI-2 in 40% (v/v) PEG 400 in water
• a) 2.0 mg/kg (6.0 mg/m^2), 1× per day. • b) 1.5 mg/kg (4.5 mg/m^2), 2× per day on 3 successive days, followed by 4 treatment-free days. • c) 1.7 mg/kg (5.1 mg/m^2), 2× per day on 3 successive days, followed by 4 treatment-free days.

NCI-H69 = experiment: Proliferation assay NCI-H69; format: cell-based; details: Homo sapiens, 96 h; NCI-H69, small-cell bronchial carcinoma; 4 days, crystal violet
Method: (§4) Cultivated human tumor cells (originally obtained from ATCC, HeLa-MaTu and HeLa-MaTu-ADR, originally obtained from Epo GmbH, Berlin, Germany) were plated at a density of 1000 to 5000 cells/measuring point, depending on the growth rate of the cell line, in a 96-well multititer plate in 200 μl of growth medium (DMEM/HAMS F12, 2 mM L-glutamine, 10% fetal calf serum). After 24 hours the cells of one plate (zero-point plate) were stained with crystal violet (see below), whereas the medium of the other plates was replaced with fresh culture medium (200 μl), to which the test substances had been added at various concentrations (0 μM, and in the range 0.01-30 μM; the final concentration of the solvent dimethyl sulfoxide was 0.5%). The cells were incubated for 4 days in the presence of the test substances. Cellular proliferation was determined by staining the cells with crystal violet: the cells were fixed by adding 20 μl/measuring point of an 11% glutaraldehyde solution for 15 min at room temperature. […] The extinction was determined photometrically at a wavelength of 595 nm. The percentage change in cell growth was calculated by standardization of the measured values to the extinction values of the zero-point plate (=0%) and the extinction of the untreated (0 μM) cells (=100%). […] The IC50 values were determined by means of a 4-parameter fit using the company's own software. […]

A375 = experiment: Proliferation assay A375; format: cell-based; details: Homo sapiens, A-375, 96 h; A375, skin: melanoma; 4 days, crystal violet
Method: as §4

[4] = HCT116; b) 2.5 mg/kg oral 2× per day on 2 successive days, followed by 5 treatment-free days

SMILES	TGITW (tumor growth inhibition from tumor weights) ([1]; HCT116; a) 2.0 mg/kg oral 1× per day)	TGITW (tumor growth inhibition from tumor weights) [1, 4]	tumor regression observation [1, 4]	TGITW (tumor growth inhibition from tumor weights) ([1]; HCT116; c) 5.0 mg/kg oral 1× per day on 2 successive days, followed by 5 treatment-free days)	TGITW (tumor growth inhibition from tumor weights) [2]	TGITW (tumor growth inhibition from tumor weights) ([3]; A2780-Cis; a) 2.0 mg/kg oral 1× per day)	TGITW (tumor growth inhibition from tumor weights) ([3]; A2780-Cis; b) 1.5 mg/kg oral 2× per day on 3 successive days, followed by 4 treatment-free days)	TGITW (tumor growth inhibition from tumor weights) ([3]; A2780-Cis; c) 1.7 mg/kg oral 2× per day on 3 successive days, followed by 4 treatment-free days)	pIC50 (NCI-H69)	pIC50 (A375)
C[C@@H](O)[C@@H](C)Oc1nc(Nc2ccc(S(C)(=N)=O)cc2)ncc1C(F)(F)F (mixture of isomers) [Example 2-SI-2, (RS)—S-(4-{[4-{[(1R,2R)-2-Hydroxy-1-methylpropyl]oxy}-5-(trifluoromethyl)pyrimidin-2-yl]-amino}phenyl)-S-methylsulfoximide]	67%	57%	signs of tumor regression	83%	86%	85%	88%	92%	–	–
C[C@@H](O)[C@@H](C)Oc1nc(Nc2ccc(S(C)(=N)=O)cc2)ncc1C(F)(F)F (single isomer, unassigned) [Example 2-SI-2]	–	–	–	–	–	–	–	–	7.43	7.82
